Data on 1 compound can be found in ChEMBL document CHEMBL5113532, “Design and Characterization of a Natural Arf-GEFs Inhibitor Prodrug CHNQD-01255 with Potent Anti-Hepatocellular Carcinoma Efficacy In Vivo” (J Med Chem, 2022).

A short description of data set [1]: Solubility of the compound in saline/solutol HS-15 (95/5% V/V) at pH 7.4. Format: physicochemical.
Data set [2] has as its system HepG2. As to the kind of experiment: Antiproliferative activity against human HepG2 cells by MTT assay. In kind it is functional, cell-based. Background: Tetrazolium dyes change colour on reduction, which living cells bring about.
Data set [3] in a line: Solubility of the compound in 0.9% NaCl at pH 7.4. Format: physicochemical.
Data set [4] is described as follows: Solubility of the compound in saline/DMSO/solutol HS-15 (85/5/10% V/V/V) at pH 7.4. Format: physicochemical.
A short description of data set [5]: Stability of the compound at 4 to 60 degree C measured of 5 days by HPLC analysis. Format: physicochemical. As to conditions: 120 h; time 5 day; call rule not given here.
The test system of data set [6] is HepG2. In words: Antitumor activity against human HepG2 cells xenografted in BALB/c nude mouse assessed as tumor growth inhibition at 45 mg/kg, po qd administered daily for 21 consecutive days and measured every 3 days upto 21 days relative to control. In kind it is functional. As to conditions: HepG2, 504 h, time <= 21 day, read-out: TGI. On the technique in general: In xenograft studies the graft and the host belong to different species.

Data set [7] in a line: Toxicity in BALB/c mouse xenografted with human HepG2 cells assessed as change in body weight at 15 to 45 mg/kg, po qd at 45 mg/kg, po treated daily for 21 days measured every 3 days for 21 days. As to conditions: in vivo, 504 h, dose 15-45 mg/kg, time 21 day. Format: organism-based.
Data set [8] can be described thus: Toxicity in BALB/c mouse xenografted with human HepG2 cells assessed as adverse effect at 15 to 45 mg/kg, po qd at 45 mg/kg, po treated daily for 21 days measured every 3 days for 21 days. Format: organism-based. As to conditions: in vivo, 504 h, dose 15-45 mg/kg, time 21 day.
The test system of data set [9] is HepG2. As to the kind of experiment: Antitumor activity against human HepG2 cells xenografted in BALB/c nude mouse assessed as tumor growth inhibition at 1 mg/kg, iv qd administered daily for 21 consecutive days and measured every 3 days upto 21 days relative to control. Format: functional. As to conditions: HepG2, 504 h, time <= 21 day, read-out: TGI.
Data set [10] deals with HepG2. As to the kind of experiment: Antitumor activity against human HepG2 cells xenografted in BALB/c nude mouse assessed as tumor growth inhibition at 9 mg/kg, iv qd administered daily for 21 consecutive days and measured every 3 days upto 21 days relative to control. As to conditions: HepG2, 504 h, time <= 21 day, read-out: TGI. In kind it is functional.
A short description of data set [11]: Cmax in ICR mouse at 45 mg/kg, po measured after 0.083 to 12 hrs by UPLC-MS/MS analysis. In kind it is ADME, organism-based. Also on record: dose 45 mg/kg, time upper 12 hrs, time lower 0.083 hrs, route po. As to conditions: in vivo.
Data set [12] can be described thus: Drug distribution in ICR mouse liver at 100 mg/kg, ip measured upto 0.5 hrs by UPLC-MS/MS analysis. Format: ADME, organism-based. As to conditions: in vivo.
Data set [13] can be described thus: Drug distribution in ICR mouse heart at 100 mg/kg, ip measured upto 0.5 hrs by UPLC-MS/MS analysis. In kind it is ADME, organism-based. As to conditions: in vivo.
Data set [14] is described as follows: Drug elimination in ICR mouse heart at 100 mg/kg, ip measured for 1.5 hrs by UPLC-MS/MS analysis. In kind it is ADME, organism-based. As to conditions: in vivo.
Data set [15] in a line: Drug elimination in ICR mouse spleen at 100 mg/kg, ip measured for 1.5 hrs by UPLC-MS/MS analysis. In kind it is ADME, organism-based. As to conditions: in vivo.
Data set [16] in a line: Drug elimination in ICR mouse duodenum at 100 mg/kg, ip measured for 1.5 hrs by UPLC-MS/MS analysis. In kind it is ADME, organism-based. As to conditions: in vivo.
Data set [17] is described as follows: Hepatotoxicity in ICR mouse assessed as change in blood ALT level at 45 mg/kg, po by biochemical assay. In kind it is toxicity, organism-based. As to conditions: in vivo.
Data set [18] in a line: Renal toxicity in ICR mouse assessed as change in blood UREA level at 45 mg/kg, po by biochemical assay. As to conditions: in vivo. In kind it is organism-based.
Data set [19] in a line: Renal toxicity in ICR mouse assessed as change in blood CREA level at 45 mg/kg, po by biochemical assay. Format: organism-based. As to conditions: in vivo.
The nature of data set [20]: Renal toxicity in ICR mouse assessed as change in blood CK level at 45 mg/kg, po by biochemical assay. Format: organism-based. As to conditions: in vivo.
Data set [21] can be described thus: Toxicity in ICR mouse assessed as effect on kidney at 45 mg/kg, po measured after 2 weeks by H and E staining based analysis. Format: organism-based. As to conditions: in vivo, 336 h.

Converted amounts (≈) assume the structure as drawn.

The solubility is the concentration that dissolves in the medium under given conditions. A higher solubility goes with a readily soluble substance. Broadly, the IC50 is the concentration that inhibits the measured activity by half. Read a high IC50 as a need for much substance. As usually defined, the Cmax is the maximum level reached in the sampled fluid or tissue.

With `C[C@H]1CCC/C=C/[C@@H]2C[C@H](OC(=O)OCc3cccnc3)C[C@H]2[C@H](O)/C=C/C(=O)O1`, the solubility is 1000 µg/mL (≈ 2410 µM) in data set [1], less than 1000 µg/mL in data set [3] and 15 mg/mL (≈ 36100 µM) in data set [4]. Besides, half-maximal inhibition with HepG2 [2] (IC50) was put at 100 nM. Besides, in data set [5], the Stability result is given as “Stable”. Further, in the data set with HepG2 [6], the inhibition in vivo at 45 mg/kg was 61%. Moreover, the Activity result in [7], in [8], in data set [17], in [18], in data set [19] and in data set [20] was “Non-Toxic” each time. In addition, the Activity entry in data set [21] is “Non-Toxic”. In addition, the inhibition in vivo at 1 mg/kg with HepG2 [9] amounted to 36.6%. For the same compound, the inhibition in vivo at 9 mg/kg with HepG2 [10] is 48.3%. The concentration in data set [11] peaked (Cmax) at 20.3 ng/mL. The Drug uptake result in data set [12] and in data set [13] was “Active” throughout. The Drug excretion result in [14], in data set [15] and in data set [16] was “Active” in each case.
